Literature values, collected in patent US20240065969A1, “OPHTHALMIC TOPICAL CREAM FORMULATIONS AND USES THEREOF” (Glaukos Corporation, priority 2022, published 2024).

For CC[C@@H]1C(=O)OC[C@@H]1Cc1cncn1C [pilocarpine], the pKa is listed as about 6.5.
